# Measured values as given in patent US20230113037A1 (Bayer Aktiengesellschaft, priority 2019, published 2023).
# Experiments:
# AHR [1] = target: T1, AHR (Homo sapiens, UniProt P35869); experiment: In vitro assay 1: antagonism in human cell line (AHR transactivation, firefly luciferase reporter, kynurenic acid prestimulated); type: cell-based; conditions: AHR Antagonism Human IC50 [M]
# T1 construct: U87 MG glioblastoma cells (ATCC #HTB-14) endogenously expressing AHR; endogenous in cells; host or cells: U87 MG glioblastoma cells (ATCC #HTB-14)
# T1 sequence (P35869 11-848): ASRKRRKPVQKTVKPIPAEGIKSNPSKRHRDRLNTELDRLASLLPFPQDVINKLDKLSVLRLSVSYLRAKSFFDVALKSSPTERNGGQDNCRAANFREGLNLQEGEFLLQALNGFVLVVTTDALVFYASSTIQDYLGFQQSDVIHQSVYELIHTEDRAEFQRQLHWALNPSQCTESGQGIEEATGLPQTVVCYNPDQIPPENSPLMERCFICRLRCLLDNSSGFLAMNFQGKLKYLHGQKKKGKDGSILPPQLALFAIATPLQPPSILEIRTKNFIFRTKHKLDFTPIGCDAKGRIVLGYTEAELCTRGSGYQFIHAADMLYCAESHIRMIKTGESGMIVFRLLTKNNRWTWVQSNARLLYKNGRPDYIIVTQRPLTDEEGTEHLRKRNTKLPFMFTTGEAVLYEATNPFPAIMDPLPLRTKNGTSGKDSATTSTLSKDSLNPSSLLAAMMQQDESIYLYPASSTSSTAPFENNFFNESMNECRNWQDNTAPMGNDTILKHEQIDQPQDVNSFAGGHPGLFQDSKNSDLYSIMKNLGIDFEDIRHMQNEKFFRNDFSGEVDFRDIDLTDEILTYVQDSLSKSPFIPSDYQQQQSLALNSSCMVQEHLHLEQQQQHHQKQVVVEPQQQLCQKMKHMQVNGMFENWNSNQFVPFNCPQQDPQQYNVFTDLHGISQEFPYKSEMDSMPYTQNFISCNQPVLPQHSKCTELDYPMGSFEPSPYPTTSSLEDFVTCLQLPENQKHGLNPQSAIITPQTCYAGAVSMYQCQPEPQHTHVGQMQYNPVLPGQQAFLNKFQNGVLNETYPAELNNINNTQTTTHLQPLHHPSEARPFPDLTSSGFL
# Procedure: Examples were tested in selected biological assays one or more times. When tested more than once, data are reported as either average values or as median values, wherein • the average value, also referred to as the arithmetic mean value, represents the sum of the values obtained divided by the number of times tested, and • the median value represents the middle number of the group of values when ranked in ascending or descending order. If the number of values in the data set is odd, the median is the middle value. If the number of values in the data set is even, the median is the arithmetic mean of the two middle values.
# Transactivation assays were carried out in U87 MG glioblastoma cells (ATCC #HTB-14) endogenously expressing AHR. In addition the cells were stably transfected with an AHR inducible firefly luciferase reporter gene construct that carried AHR-binding sites (DRE) in its promoter and a renilla reporter gene construct with constitutively active promoter. Kynurenic acid is an endogenous AHR activating ligand and was used to prestimulate test cells prior to testing the antagonistic properties of compounds.
# As positive inhibition control cells supplemented with 150 μM kynurenic acid were incubated in presence of 5 μM Staurosporin. Normalization was done by positive and negative controls.
# Firefly luciferase and Renilla activity was determined by the DualGlo Luciferase Assay System (Promega, #2920). Renilla activity was used to assess toxic effects of compounds.
# AHR [2] = target: T2, AHR (Mus musculus, UniProt P30561); experiment: In vitro assay 3: antagonism in mouse cell line (AHR transactivation, firefly luciferase reporter, kynurenic acid prestimulated); type: cell-based; conditions: mouse Hepa 1c1c7 cells, 200 μM kynurenic acid, 20 hours, read-out: AHR Antagonism Mouse IC50
# T2 sequence (P30561 1-848 P471L/N533S/M589L): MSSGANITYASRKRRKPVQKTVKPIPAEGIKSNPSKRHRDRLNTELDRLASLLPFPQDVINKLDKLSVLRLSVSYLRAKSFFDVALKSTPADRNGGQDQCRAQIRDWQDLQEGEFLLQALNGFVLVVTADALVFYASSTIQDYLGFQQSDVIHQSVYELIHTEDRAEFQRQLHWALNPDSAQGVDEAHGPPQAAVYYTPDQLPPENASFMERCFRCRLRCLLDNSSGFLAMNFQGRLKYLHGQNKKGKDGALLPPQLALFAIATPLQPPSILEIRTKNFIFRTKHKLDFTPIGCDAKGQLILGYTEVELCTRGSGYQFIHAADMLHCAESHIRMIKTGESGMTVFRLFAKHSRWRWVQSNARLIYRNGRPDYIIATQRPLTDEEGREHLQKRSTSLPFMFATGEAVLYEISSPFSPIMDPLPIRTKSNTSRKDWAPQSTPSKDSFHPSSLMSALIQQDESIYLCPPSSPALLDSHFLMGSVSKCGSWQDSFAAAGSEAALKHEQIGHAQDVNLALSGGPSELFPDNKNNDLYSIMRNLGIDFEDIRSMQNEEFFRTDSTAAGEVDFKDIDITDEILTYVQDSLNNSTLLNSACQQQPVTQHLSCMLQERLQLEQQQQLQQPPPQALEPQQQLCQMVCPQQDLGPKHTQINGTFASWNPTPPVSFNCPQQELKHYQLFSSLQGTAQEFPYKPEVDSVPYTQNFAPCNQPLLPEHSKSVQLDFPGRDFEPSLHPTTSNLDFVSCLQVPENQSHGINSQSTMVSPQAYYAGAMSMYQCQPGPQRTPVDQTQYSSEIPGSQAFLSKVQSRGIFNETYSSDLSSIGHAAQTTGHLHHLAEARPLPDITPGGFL
# How it was run: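 Mouse cells stably carrying a DRE-driven AHR-inducible firefly luciferase reporter were prestimulated with the endogenous agonist kynurenic acid before compound addition. Luciferase read by SteadyGlo; cells without kynurenic acid served as full-inhibition control, with normalization to positive and negative controls. Repeat tests reported as mean or median.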
SMILES,IC50 (AHR [1]) [M],also measured
"O=C1NCCCC[C@H]1Nc1nc2cccc(Br)c2c2nc(-c3cccc(F)c3)nn12 [Example 163, (3R)-3-{[10-bromo-2-(3-fluorophenyl)[1,2,4]triazolo[1,5-c]quinazolin-5-yl]amino}azepan-2-one]",2.14e-08,
"O=C1NCCCC[C@H]1Nc1nc2c(C(F)(F)F)cccc2c2nc(-c3nc(C4CC4)cs3)nn12 [Example 747, (3R)-3-{[2-(4-cyclopropyl-1,3-thiazol-2-yl)-7-(trifluoromethyl)[1,2,4]triazolo[1,5-c]quinazolin-5-yl]amino}azepan-2-one]",1.65e-09,
"CN(C)c1ccccc1-c1nc2c3ccccc3nc(N[C@@H]3CCCCNC3=O)n2n1 [Example 455, (3R)-3-({2-[2-(dimethylamino)phenyl][1,2,4]triazolo[1,5-c]quinazolin-5-yl}amino)azepan-2-one]",1.17e-07,
"Cn1cc(-c2nc3c4cccc(C(F)(F)F)c4nc(N[C@@H]4CCNC4=O)n3n2)cn1 [Example 586, (3R)-3-{[2-(1-methyl-1H-pyrazol-4-yl)-7-(trifluoromethyl)[1,2,4]triazolo[1,5-c]quinazolin-5-yl]amino}pyrrolidin-2-one]",2.79e-07,
"COc1ccc(-c2nc3c4c(C(C)C)cccc4nc(N[C@@H]4CCCCNC4=O)n3n2)cc1 [Example 726, (3R)-3-{[2-(4-methoxyphenyl)-10-(propan-2-yl)[1,2,4]triazolo[1,5-c]quinazolin-5-yl]amino}azepan-2-one]",1.09e-05,
COc1ccc2c(c1)nc(N[C@@H]1CCCCNC1=O)n1nc(-c3cnn(C)c3)nc21 [Example 550],5.35e-06,
"Cc1ccc2c(c1)nc(N[C@@H]1CCCCNC1=O)n1nc(-c3cnn(C)c3)nc21 [Example 147, (3R)-3-{[8-methyl-2-(1-methyl-1H-pyrazol-4-yl)[1,2,4]triazolo[1,5-c]quinazolin-5-yl]amino}azepan-2-one]",7.53e-07,
"CCC[C@@H](Nc1nc2ccccc2c2nc(-c3csc(C)c3)nn12)C(=O)NC [Example 357, N-methyl-N^2-[2-(5-methylthiophen-3-yl)[1,2,4]triazolo[1,5-c]quinazolin-5-yl]-D-norvalinamide]",1.35e-09,
"COc1cccc2c1nc(N[C@@H]1CCCCNC1=O)n1nc(-c3cn[nH]c3)nc21 [Example 755, (3R)-3-{[7-methoxy-2-(1H-pyrazol-4-yl)[1,2,4]triazolo[1,5-c]quinazolin-5-yl]amino}azepan-2-one]",9.19e-06,
"O=C1NCCCC[C@H]1Nc1nc2ccccc2c2nc(-c3ccc(F)cc3F)nn12 [Example 201, (3R)-3-{[2-(2,4-difluorophenyl)[1,2,4]triazolo[1,5-c]quinazolin-5-yl]amino}azepan-2-one]",3.56e-10,
"COc1ccc(-c2nc3c4cc(C5CC5)ccc4nc(N[C@@H]4CCCCNC4=O)n3n2)cc1 [Example 547, (3R)-3-{[9-cyclopropyl-2-(4-methoxyphenyl)[1,2,4]triazolo[1,5-c]quinazolin-5-yl]amino}azepan-2-one]",> 5.71e-06,
"COc1cccc(-c2nc3c4ccccc4nc(NC4CCN(C)C4=O)n3n2)c1 (stereo not drawn) [Example 80, 3-{[2-(3-methoxyphenyl)[1,2,4]triazolo[1,5-c]quinazolin-5-yl]amino}-1-methylpyrrolidin-2-one]",2.53e-08,
"O=C1NCCCCCC1Nc1nc2ccccc2c2nc(-c3ccc(Cl)cc3OC(F)F)nn12 (stereo not drawn) [Example 529, 3-({2-[4-chloro-2-(difluoromethoxy)phenyl][1,2,4]triazolo[1,5-c]quinazolin-5-yl}amino)azocan-2-one]",2.8e-09,
"Cn1cc(-c2nc3c4cccc(C(C)(C)O)c4nc(N[C@@H]4CCCCNC4=O)n3n2)cn1 [Example 861, (3R)-3-{[7-(2-hydroxypropan-2-yl)-2-(1-methyl-1H-pyrazol-4-yl)[1,2,4]triazolo[1,5-c]quinazolin-5-yl]amino}azepan-2-one]",,IC50 (AHR [1]; firefly luciferase reporter): 1.34e-07 M
"O=C1NCCCC[C@H]1Nc1nc2ccccc2c2nc(-c3ccccc3Cl)nn12 [Example 58, (3R)-3-{[2-(2-chlorophenyl)[1,2,4]triazolo[1,5-c]quinazolin-5-yl]amino}azepan-2-one]",1.05e-08,
Cn1cc(-c2nc3c4cccc(C5(C(F)(F)F)CC5)c4nc(N[C@@H]4CNCCNC4=O)n3n2)cn1 [Example 430],3.22e-07,
"Cn1cc(-c2nc3c4ccc(C(F)(F)F)cc4nc(N[C@@H]4CCCCNC4=O)n3n2)cn1 [Example 227, (3R)-3-{[2-(1-methyl-1H-pyrazol-4-yl)-8-(trifluoromethyl)[1,2,4]triazolo[1,5-c]quinazolin-5-yl]amino}azepan-2-one]",2.65e-06,
"O=C1NCCCC[C@H]1Nc1nc2c(C(F)(F)F)cccc2c2nc(-c3cccc(F)c3)nn12 [Example 581, (3R)-3-{[2-(3-fluorophenyl)-7-(trifluoromethyl)[1,2,4]triazolo[1,5-c]quinazolin-5-yl]amino}azepan-2-one]",1.69e-09,
"CC[C@@H](Nc1nc2ccccc2c2nc(-c3cccc(Br)c3)nn12)C(N)=O [Example 445, (2R)-2-{[2-(3-bromophenyl)[1,2,4]triazolo[1,5-c]quinazolin-5-yl]amino}butanamide]",9.27e-08,
"O=C1NCCCC[C@H]1Nc1nc2cccc(Cl)c2c2nc(-c3cccc(F)c3)nn12 [Example 167, (3R)-3-{[10-chloro-2-(3-fluorophenyl)[1,2,4]triazolo[1,5-c]quinazolin-5-yl]amino}azepan-2-one]",6.39e-09,
"COc1cccc(-c2nc3c4ccccc4nc(NC4(C(N)=O)CCCC4)n3n2)c1 [Example 99, 1-{[2-(3-methoxyphenyl)[1,2,4]triazolo[1,5-c]quinazolin-5-yl]amino}cyclopentane-1-carboxamide]",6.78e-08,
"Cn1cc(-c2nc3c4ccccc4nc(NC4CCNC4=O)n3n2)cn1 (single isomer, unassigned) [Example 19, 3-{[2-(1-methyl-1H-pyrazol-4-yl)[1,2,4]triazolo[1,5-c]quinazolin-5-yl]amino}pyrrolidin-2-one]",> 2e-05,
"COc1ccc(-c2nc3c4cc(OC)c(OC)cc4nc(N[C@@H]4CCCCNC4=O)n3n2)cc1 [Example 590, (3R)-3-{[8,9-dimethoxy-2-(4-methoxyphenyl)[1,2,4]triazolo[1,5-c]quinazolin-5-yl]amino}azepan-2-one]",3.65e-07,
"COc1ccc(-c2nc3c4cccc(Cl)c4nc(N[C@@H]4CCCCNC4=O)n3n2)cc1 [Example 553, (3R)-3-{[7-chloro-2-(4-methoxyphenyl)[1,2,4]triazolo[1,5-c]quinazolin-5-yl]amino}azepan-2-one]",,IC50 (AHR [2]): 1.18 nM
